# Data from US11612604B2, “Methods of treating cancer with PLK4 inhibitors” (LUDWIG INSTITUTE FOR CANCER RESEARCH LTD, priority 2017, dated 2023).
# Target: T1, PLK4 (Homo sapiens, UniProt O00444)
# T1 sequence (O00444 1-970): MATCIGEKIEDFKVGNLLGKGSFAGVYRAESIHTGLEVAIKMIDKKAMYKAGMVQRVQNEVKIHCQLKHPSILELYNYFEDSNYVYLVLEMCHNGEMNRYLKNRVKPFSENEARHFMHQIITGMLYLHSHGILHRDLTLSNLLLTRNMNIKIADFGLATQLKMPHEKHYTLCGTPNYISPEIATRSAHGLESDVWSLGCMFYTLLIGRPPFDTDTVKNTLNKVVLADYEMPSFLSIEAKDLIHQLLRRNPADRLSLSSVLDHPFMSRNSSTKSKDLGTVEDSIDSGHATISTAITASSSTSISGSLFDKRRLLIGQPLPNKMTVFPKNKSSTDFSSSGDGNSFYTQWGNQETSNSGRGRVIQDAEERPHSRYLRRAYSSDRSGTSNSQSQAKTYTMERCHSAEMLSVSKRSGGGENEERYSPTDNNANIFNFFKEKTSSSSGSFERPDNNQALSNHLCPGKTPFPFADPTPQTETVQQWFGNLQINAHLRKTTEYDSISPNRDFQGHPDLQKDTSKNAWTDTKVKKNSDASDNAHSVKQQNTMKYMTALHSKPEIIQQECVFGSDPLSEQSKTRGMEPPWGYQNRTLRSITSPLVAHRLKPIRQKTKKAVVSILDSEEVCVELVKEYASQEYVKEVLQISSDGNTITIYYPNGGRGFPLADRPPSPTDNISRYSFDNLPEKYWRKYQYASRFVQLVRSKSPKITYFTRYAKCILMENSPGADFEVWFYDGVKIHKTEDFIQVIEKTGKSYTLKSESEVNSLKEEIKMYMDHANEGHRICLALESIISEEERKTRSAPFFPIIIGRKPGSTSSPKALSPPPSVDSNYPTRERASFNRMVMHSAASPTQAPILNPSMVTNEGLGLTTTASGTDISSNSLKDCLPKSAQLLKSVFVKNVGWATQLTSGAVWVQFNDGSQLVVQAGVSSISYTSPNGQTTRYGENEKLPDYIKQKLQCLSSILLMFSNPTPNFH
# Assay: Activity (IC50) of the Table 1 compounds as PLK4 inhibitors
# Type: biochemical
# Conditions: Table 1, IC50 class
row,SMILES,IC50
1,CCN(CC)c1nc(Sc2ccc(NC(=O)C3CC3)cc2)nc(Nc2cc(C)[nH]n2)c1C,< 100 nM
2,Cc1cc(Nc2nc(Sc3ccc(NC(=O)C4CC4)cc3)nc(Cl)c2C)n[nH]1,< 100 nM
3,Cc1cc(Nc2nc(Sc3ccc(NC(=O)C4CC4)cc3)nc(NCCN(C)C)c2C)n[nH]1,< 100 nM
4,COCCN(C)c1nc(Sc2ccc(NC(=O)C3CC3)cc2)nc(Nc2cc(C)[nH]n2)c1C,< 100 nM
5,COc1c(Nc2cc(C)[nH]n2)nc(Sc2ccc(NC(C)=O)cc2)nc1N1CCC(C(C)=O)CC1,< 100 nM
6,COc1c(Nc2cc(C)[nH]n2)nc(Sc2ccc(NC(C)=O)cc2)nc1N1CCC(N)CC1,< 100 nM
7,COc1c(Nc2cc(C)[nH]n2)nc(Sc2ccc(NC(C)=O)cc2)nc1N1CCN(C(=O)C(C)C)CC1,< 100 nM
8,COc1c(Nc2cc(C)[nH]n2)nc(Sc2ccc(S(=O)(=O)Cc3ccccc3)cc2)nc1N1CCN(C2CCN(C)CC2)CC1,< 100 nM
9,CSc1nc(Nc2cc(C)[nH]n2)c(C)c(N2CCOCC2)n1,< 100 nM
10,CC(=O)Nc1ccc(Sc2nc(Nc3cc(C)[nH]n3)c(C)c(N3CCN(C(C)C)CC3)n2)cc1,< 100 nM
11,CC(=O)Nc1ccc(Sc2nc(Nc3cc(C)[nH]n3)c(C)c(N3CCN(C(=O)C(C)C)CC3)n2)cc1,< 100 nM
12,CNCC(=O)N1CCN(c2nc(Sc3ccc(NC(C)=O)cc3)nc(Nc3cc(C)[nH]n3)c2OC)CC1,< 100 nM
13,COc1c(Nc2cc(C)[nH]n2)nc(Sc2ccc(NC(C)=O)cc2)nc1N1CCN(C(=O)CN(C)C)CC1,< 100 nM
14,CNC1CCN(c2nc(Sc3ccc(NC(C)=O)cc3)nc(Nc3cc(C)[nH]n3)c2C)CC1,< 100 nM
15,CC(=O)Nc1ccc(Sc2nc(Nc3cc(C)[nH]n3)c(C)c(N3CCC(C(C)=O)CC3)n2)cc1,< 100 nM
16,CNC(=O)Nc1ccc(Sc2nc(Nc3cc(C)[nH]n3)c(C)c(N3CCC(O)CC3)n2)cc1,< 100 nM
17,CNC(=O)Nc1ccc(Sc2nc(Nc3cc(C)[nH]n3)c(C)c(N3CCOCC3)n2)cc1,< 100 nM
18,Cc1cc(Nc2nc(Sc3ccccc3)nc(N3CCC(O)CC3)c2C)n[nH]1,< 100 nM

row,SMILES,IC50
1,COc1c(Nc2cc(C)[nH]n2)nc(Sc2ccc(S(=O)(=O)Cc3ccccc3)cc2)nc1N1CCN(CCN2CCCC2)CC1,< 100 nM
2,CCN(CC)c1nc(Sc2ccc(NC(C)=O)cc2)nc(Nc2cc(C)[nH]n2)c1C,< 100 nM
3,Cc1cc(Nc2nc(Sc3ccc(N)cc3)nc(N3CCOCC3)c2C)n[nH]1,< 100 nM
4,CSc1nc(Nc2cc(C)[nH]n2)c(C)c(N(C)C(C)C)n1,< 100 nM
5,CNC(=O)Nc1ccc(Sc2nc(Nc3cc(C)[nH]n3)c(C)c(N(C)C(C)C)n2)cc1,< 100 nM
6,Cc1ccc(Sc2nc(Nc3cc(C)[nH]n3)c(C)c(N3CCOCC3)n2)cc1,< 100 nM
7,COCC(=O)N1CCN(c2nc(Sc3ccc(C)cc3)nc(Nc3cc(C)[nH]n3)c2C)CC1,< 100 nM
8,COc1c(Nc2cc(C)[nH]n2)nc(Sc2ccc(S(=O)(=O)Cc3ccccc3)cc2)nc1N1CCN(CCN2CCCCC2)CC1,< 100 nM
9,COc1c(Nc2cc(C)[nH]n2)nc(Sc2ccc(S(=O)(=O)Cc3ccccc3)cc2)nc1N1CCN(CCN2C(C)CCCC2C)CC1 (stereo not drawn),< 100 nM
10,CC(=O)Nc1ccc(Sc2nc(Nc3cc(C)[nH]n3)c(C)c(N(CCO)C(C)C)n2)cc1,< 100 nM
11,Cc1cc(Nc2nc(Sc3ccc(NC(=O)C4CC4)cc3)nc(N3CCC(O)CC3)c2C)n[nH]1,< 100 nM
12,COc1c(Nc2cc(C)[nH]n2)nc(Sc2ccc(CC(=O)C3CC3)cc2)nc1N1CCC(O)CC1,< 100 nM
13,COc1c(Nc2cc(C)[nH]n2)nc(Sc2ccc(NC(C)=O)cc2)nc1N1C2CCC1CC(O)C2 (stereo not drawn),< 100 nM
14,COc1c(Nc2cc(C)[nH]n2)nc(Sc2ccc(S(=O)(=O)Cc3ccccc3)cc2)nc1N1CCO[C@@H](C)C1,< 100 nM
15,COc1cccc(CS(=O)(=O)c2ccc(Sc3nc(Nc4cc(C)[nH]n4)c(OC)c(N4CCN(CCN(C)Cc5ccccc5)CC4)n3)cc2)c1,< 100 nM
16,COc1c(Nc2cc(C)[nH]n2)nc(Sc2ccc(S(=O)(=O)Cc3ccccc3)cc2)nc1N1CCOC[C@@H]1C,< 100 nM
17,COC(=O)c1cccc(CS(=O)(=O)c2ccc(Sc3nc(Nc4cc(C)[nH]n4)c(OC)c(N4CCN(CCN(C)C)CC4)n3)cc2)c1,< 100 nM

# The next lines start with the values.
row,IC50,SMILES
1,< 100 nM,Cc1cc(Nc2nc(Sc3ccc(NC(=O)C4CC4)cc3)nc(N(C)CCN(C)C)c2C)n[nH]1
2,< 100 nM,CNCCN(C)c1nc(Sc2ccc(NC(=O)C3CC3)cc2)nc(Nc2cc(C)[nH]n2)c1C
3,< 100 nM,COc1c(Nc2cc(C)[nH]n2)nc(Sc2ccc(NC(C)=O)cc2)nc1N1CC=C(F)CC1
4,< 100 nM,COc1c(Nc2cc(C)[nH]n2)nc(Sc2ccc(NC(C)=O)cc2)nc1N1CCC(N(C)C)CC1
5,< 100 nM,CC(=O)Nc1ccc(Sc2nc(Nc3cc(C)[nH]n3)c(C)c(N3CCC(CCN(C)C)CC3)n2)cc1
6,< 100 nM,CCN1CCN(c2nc(Sc3ccc(NC(C)=O)cc3)nc(Nc3cc(C)[nH]n3)c2OC)CC1
7,< 100 nM,CCC(=O)N1CCN(c2nc(Sc3ccc(NC(C)=O)cc3)nc(Nc3cc(C)[nH]n3)c2OC)CC1
8,< 100 nM,COc1c(Nc2cc(C)[nH]n2)nc(Sc2ccc(S(=O)(=O)Cc3ccccc3)cc2)nc1N1CCC(N2CCN(C)CC2)CC1
9,< 100 nM,CSc1nc(Nc2cc(C)[nH]n2)c(C)c(N2CCC(O)CC2)n1
10,< 100 nM,COc1c(Nc2cc(C)[nH]n2)nc(Sc2ccc(NC(C)=O)cc2)nc1N1CCN(C(C)C)CC1
11,< 100 nM,CNCC(=O)C1CCN(c2nc(Sc3ccc(NC(C)=O)cc3)nc(Nc3cc(C)[nH]n3)c2OC)CC1
12,< 100 nM,Cc1cc(Nc2nc(Sc3ccccc3)nc(N(C)C)c2C)n[nH]1
13,< 100 nM,Cc1cc(Nc2nc(Sc3ccccc3)nc(N3CCOCC3)c2C)n[nH]1
14,< 100 nM,CC(=O)Nc1ccc(Sc2nc(Nc3cc(C)[nH]n3)c(C)c(N3CCC(N)CC3)n2)cc1
15,< 100 nM,CC(=O)Nc1ccc(Sc2nc(Nc3cc(C)[nH]n3)c(C)c(N3CCC(N(C)C)CC3)n2)cc1
16,< 100 nM,CC(=O)Nc1ccc(Sc2nc(Nc3cc(C)[nH]n3)c(C)c(N3CCC(C)(O)CC3)n2)cc1
17,< 100 nM,Cc1cc(Nc2nc(Sc3ccc(N)cc3)nc(N3CCC(O)CC3)c2C)n[nH]1
18,< 100 nM,COCC(=O)N1CCN(c2nc(Sc3ccccc3)nc(Nc3cc(C)[nH]n3)c2C)CC1
19,< 100 nM,COc1c(Nc2cc(C)[nH]n2)nc(Sc2ccc(NC(C)=O)cc2)nc1N1CCC(CCN(C)C)CC1
20,< 100 nM,CNC(=O)Nc1ccc(Sc2nc(Nc3cc(C)[nH]n3)c(C)c(N3CCN(C(=O)COC)CC3)n2)cc1

row,IC50,SMILES
1,< 100 nM,Cc1cc(Nc2nc(Sc3ccc(N)cc3)nc(N(C)C(C)C)c2C)n[nH]1
2,< 100 nM,COCC(=O)N1CCN(c2nc(Sc3ccc(N)cc3)nc(Nc3cc(C)[nH]n3)c2C)CC1
3,< 100 nM,Cc1ccc(Sc2nc(Nc3cc(C)[nH]n3)c(C)c(N3CCC(O)CC3)n2)cc1
4,< 100 nM,COc1c(Nc2cc(C)[nH]n2)nc(Sc2ccc(S(=O)(=O)Cc3ccccc3)cc2)nc1N1CCN(CCN2CCC(O)CC2)CC1
5,< 100 nM,CC(=O)Nc1ccc(Sc2nc(Nc3cc(C)[nH]n3)c(Cl)c(N3CCC(O)CC3)n2)cc1
6,< 100 nM,CC(=O)Nc1ccc(Cc2nc(N3CCC(O)CC3)nc(Nc3cc(C)[nH]n3)c2Cl)cc1
7,< 100 nM,CCN(c1nc(Sc2ccc(NC(C)=O)cc2)nc(Nc2cc(C)[nH]n2)c1C)C(C)C
8,< 100 nM,CC(=O)Nc1ccc(Sc2nc(Nc3cc(C)[nH]n3)c(C)c(N3CCN(CCN4CCOCC4)CC3)n2)cc1
9,< 100 nM,CCOc1c(Nc2cc(C)[nH]n2)nc(Sc2ccc(NC(C)=O)cc2)nc1N1CCC(O)CC1
10,< 100 nM,Cc1ccc(Sc2nc(Nc3cc(C)[nH]n3)c(C)c(N(C)C(C)C)n2)cc1
11,< 100 nM,COCC(=O)N1CCN(c2nc(SC)nc(Nc3cc(C)[nH]n3)c2C)CC1
12,< 100 nM,CC(=O)Nc1ccc(Sc2nc(Nc3cc(C)[nH]n3)c(C)c(N3C4CCC3CC(O)C4)n2)cc1 (stereo not drawn)
13,< 100 nM,COc1c(Nc2cc(C)[nH]n2)nc(Sc2ccc(S(=O)(=O)Cc3ccccc3)cc2)nc1N1CCO[C@H](C)C1
14,< 100 nM,COc1c(Nc2cc(C)[nH]n2)nc(Sc2ccc(S(=O)(=O)Cc3ccccc3)cc2)nc1N1CCN(C2CCN(Cc3ccccc3)CC2)CC1
15,< 100 nM,COc1c(Nc2cc(C)[nH]n2)nc(Sc2ccc(S(=O)(=O)Cc3ccccc3)cc2)nc1N1CC2CCC(C1)O2
16,< 100 nM,COc1c(Nc2cc(C)[nH]n2)nc(Sc2ccc(S(=O)(=O)Cc3ccccc3C)cc2)nc1N1CCN(CCN(C)C)CC1
17,< 100 nM,COc1c(Nc2cc(C)[nH]n2)nc(Sc2ccc(S(=O)(=O)Cc3ccccc3)cc2)nc1N1CCOC[C@H]1C
18,< 100 nM,COc1c(Nc2cc(C)[nH]n2)nc(Sc2ccc(S(=O)(=O)Cc3cccc(F)c3)cc2)nc1N1CCN(CCN(C)C)CC1
19,< 100 nM,COc1c(Nc2cc(C)[nH]n2)nc(Sc2ccc(S(=O)(=O)Cc3cccc([N+](=O)[O-])c3F)cc2)nc1N1CCN(CCN(C)C)CC1
20,< 100 nM,COc1c(Nc2cc(C)[nH]n2)nc(Sc2ccc(S(=O)(=O)Cc3cccc(C(N)=O)c3)cc2)nc1N1CCN(CCN(C)C)CC1
